Data from patent US20150299219A1, “BICYCLIC PYRAZOLONE COMPOUNDS AND METHODS OF USE” (Calitor Sciences, LLC, priority 2014, published 2015).

Legend:
[1] = Compound stability in human liver microsomes; assay type: in vitro ADME
Experimental: (§1) Human or rat liver microsomes incubations were conducted in duplicate in polypropylene tubes. The typical incubation mixtures consisted of human or rat liver microsomes (0.5 mg protein/mL), compounds of interest (5 μM) and NADPH (1.0 mM) in a total volume of 200 μL potassium phosphate buffer (PBS, 100 mM, pH 7.4). Compounds were dissolved in DMSO and diluted with PBS such that the final concentration of DMSO was 0.05%. The enzymatic reactions were commenced with the addition of protein after a 3-min preincubation and incubated in a water bath open to the air at 37° C. Reactions were terminated at various time points (0, 5, 10, 15, 30, 60 min) by adding equal volume of ice-cold acetonitrile. The samples were stored at −80° C. until LC/MS/MS assays.
(§2) The concentrations of compounds in the incubation mixtures of human or rat liver microsomes were determined by a LC/MS/MS method. The ranges of the linearity in the concentration range were determined for each tested compounds.
(§3) A parallel incubation was performed using denatured microsomes as the negative control, and reactions were terminated at various time points (0, 15, 60 min) after incubation at 37° C.
(§4) Dextromethorphan (70 μM) was selected as the positive control, and reactions were terminated at various time points (0, 5, 10, 15, 30, 60 min) after incubation at 37° C. Both positive and negative control samples were included in each assay to ensure the integrity of the microsomal incubation system.
(§5) Alternatively, the stability of some of the compounds disclosed herein in human (or rat) liver microsomes were also conducted in the following protocol. The incubations were conducted in duplicate in polypropylene tubes. The typical incubation mixtures consisted of liver microsomes (final concentration: 0.5 mg protein/mL), compounds (final concentration: 1.5 μM) in a total volume of 30 μL K-buffer (contain 1.0 mM EDTA, 100 mM, pH7.4). Compounds were dissolved in DMSO and diluted with K-buffer such that the final concentration of DMSO was 0.2%. The enzymatic reactions were commenced with the addition of 15 μL of NADPH (final concentration: 2 mM) after 10 min preincubation and incubated in a 37° C. incubator. Reactions were terminated at various time points (0, 15, 30, 60 min) by adding 135 μL acetonitrile (contain IS). Protein is removed by centrifugation with 4000 rpm, 10 min. Supernatant was collected for LCMS/MS analysis
(§6) In the above protocol, ketanserin (1 μM) was selected as the positive control, and reactions were terminated at various time points (0, 15, 30, 60 min) after incubation at 37° C. The positive control sample was included in each assay to ensure the integrity of the microsomal incubation system.
(§7) The concentrations of compounds in human or rat liver microsome incubations were plotted as a percentage of the relevant zero time point control for each reaction. The in vivo CLint were extrapolated (ref: Naritomi, Y.; Terashita, S.; Kimura, S.; Suzuki, A.; Kagayama, A.; and Sugiyama, Y.; Prediction of human hepatic clearance from in vivo animal experiments and in vitro metabolic studies with liver microsomes from animals and humans. Drug Metab. Dispos., 2001, 29: 1316-1324).

[2] = Compound stability in rat liver microsomes; assay type: in vitro ADME
Experimental: as §1, §2, §3, §4, §5, §6, §7

[3] = Pharmacokinetic profiles in rats; assay type: in vivo; conditions: rat, plasma
Experimental: The LC/MS/MS system used in the analysis consists of an Agilent 1200 Series vacuum degasser, binary pump, well-plate autosampler, thermostatted column compartment, the Agilent G6430 Triple Quadrupole Mass Spectrometer with an electrosprayionization (ESI) source. Quantitative analysis was carried out using MRM mode. The parameters for MRM transitions are in the Table A.
An Agilent XDB-C18, 2.1×30 mm, 3.5 μM column was used for the analysis. 5 μL of the samples were injected. Analysis condition: The mobile phase was 0.1% formic acid in water (A) and 0.1% formic acid in methanol (B). The flow rate was 0.4 mL/min. And the gradient of Mobile phase was in the Table B.
Alternatively, an Agilent 6330 series LC/MS/MS spectrometer equipped with G1312A binary pumps, a G1367A autosampler and a G1314C UV detector were used in the analysis. An ESI source was used on the LC/MS/MS spectrometer. The analysis was done in positive ion mode as appropriate and the MRM transition for each analyte was optimized using standard solution. A Capcell MP-C18 100×4.6 mm I.D., […] column (Phenomenex, Torrance, Calif., USA) was used during the analysis. The mobile phase was 5 mM ammonia acetate, 0.1% MeOH in water (A): 5 mM ammonia acetate, 0.1% MeOH in acetonitrile (B) (70/30, v/v). The flow rate was 0.6 mL/min. Column was maintained at ambient temperature. 20 μL of the samples were injected.
The compounds disclosed herein are assessed in pharmacokinetic studies in mice, rats, dogs or monkeys. The compounds are administered as a water solution, 2% HPMC+1% TWEEN®80 in water solution, 5% DMSO+5% solutol in saline, 4% MC suspension or capsule. For the intravenous administration, the animals are generally given at 1 or 2 mg/kg dose. For the oral (p.o.) dosing, mice and rats are generally given 5 or 10 mg/kg dose, and dogs and monkeys are generally given 10 mg/kg dose. The blood samples (0.3 mL) are drawn at 0.25, 0.5, 1.0, 2.0, 3.0, 4.0, 6.0, 8.0, 12 and 24 h time points or 0.083, 0.25, 0.5, 1.0, 2.0, 4.0, 6.0, 8.0 and 24 h time points and centrifuged at 3,000 or 4000 rpm for 2 to 10 min. The plasma solutions are collected, and stored at −20° C. or −70° C. until analyzed by LC/MS/MS as described above.

[4] = pH 7.4, 0.5 mg protein/mL, NADPH, 37° C.
[5] = pH 7.4, in vivo CLint extrapolated

half-life [1, 4]: 3.13 h | CLint scaled [1, 5]: 9.27 mL/min/kg | half-life [2, 4]: 1.48 h | CLint scaled [2, 5]: 27.9 mL/min/kg | AUC(0-t) ([3]; iv dosing, 1 mg/kg): 1190 ng·h/mL | half-life ([3]; iv dosing, 1 mg/kg): 1.51 h | Vd ([3]; iv dosing, 1 mg/kg, read-out: Vss): 1.2 L/kg | bioavailability ([3]; po, bioavailability (F)): 163%
Compound: Nc1cc(Oc2ccc(NC(=O)c3c4n(n(-c5ccccc5)c3=O)CCC4)cc2)ccn1 [Ex. 1, N-(4-((2-aminopyridin-4-yl)oxy)phenyl)-2-oxo-1-phenyl-2,4,5,6-tetrahydro-1H-pyrrolo[1,2-b]pyrazole-3-carboxamide]
